In patent publication US20090232786A1, “HERBAL COMPOSITION FOR CANCER TREATMENT” (priority 2001, published 2009):

What was measured:
serum PSA = experiment: Patient case studies: serum PSA; format: in vivo, human; conditions: Example 11; Casodex 50 mg once daily for three months; PSA before 41
Experimental: Serum PSA was measured to be 300. This patient then started hormone therapy including an oral administration of 100 mg of Androcur (Cyproterone Acetate) 3 times per day, and a subcutaneous injection of 3.6 mg of Zolodex (Goserelin Acetate Implant) once per three months. The prostate has been monitored since with serum PSA levels, varying between “28-62”.
In May 2001, the PSA level was measured to be 41. At that time, the patient stopped taking Androcur and Zolodex, and started to take Casodex 50 mg once daily. The treatment with Casodex continued for three months and follow-up blood tests indicated a serum PSA of 5.7.
From August 2001, this patient started to combine Casodex with an oral administration of the herbal formula of the present invention. The intake dosage of the herbal formula was 2070 mg per day. This combination treatment continued for two months.
From October 2001, the dosage of this herb formula was increased to 2760 mg per day. Following PSA level measurement was 2.3 in November 2001.
The patient in this case study was a person. […] The PSA was measured to be 21.
The prostate has been monitored approximately every 6 months. As the PSA reading was between “13-17” on occasions, when readings were high, antibiotics were prescribed for prostatitis. The PSA was measured to be 18.7 at August of 2001. […]

[1] = biological target: T1, estrogen (E2) binding site on MCF-7 cell lines (Homo sapiens, UniProt P03372); experiment: Estrogen binding assay, 3H 17-β-estradiol displacement; conditions: MCF-7, 197 μM, 1 nM 3H E2, 3 hours
T1 construct: endogenous in cells; host or cells: MCF-7 breast cancer cells
T1 sequence (P03372 1-595): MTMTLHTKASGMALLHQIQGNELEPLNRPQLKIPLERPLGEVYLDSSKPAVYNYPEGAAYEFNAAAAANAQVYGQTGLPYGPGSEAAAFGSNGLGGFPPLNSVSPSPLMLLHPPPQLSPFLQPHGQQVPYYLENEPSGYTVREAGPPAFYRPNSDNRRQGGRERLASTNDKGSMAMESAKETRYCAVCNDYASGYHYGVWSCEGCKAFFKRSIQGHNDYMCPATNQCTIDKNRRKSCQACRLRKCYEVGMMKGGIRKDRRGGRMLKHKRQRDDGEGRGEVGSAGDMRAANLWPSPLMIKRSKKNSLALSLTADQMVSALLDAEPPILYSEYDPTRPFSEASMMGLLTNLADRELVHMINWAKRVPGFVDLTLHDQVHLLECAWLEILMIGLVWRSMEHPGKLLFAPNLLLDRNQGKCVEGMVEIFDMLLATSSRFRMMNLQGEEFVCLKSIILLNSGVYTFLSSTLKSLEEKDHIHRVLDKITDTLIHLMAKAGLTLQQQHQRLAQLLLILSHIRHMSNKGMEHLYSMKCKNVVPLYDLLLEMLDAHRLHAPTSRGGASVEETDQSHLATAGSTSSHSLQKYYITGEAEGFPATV
Experimental: The estrogen binding capacity of the herbal formula was investigated by assay. This assay was developed and run to determine if the herbal extracts that constitute the herbal formula have any binding activity towards the estrogen (E2) binding site on MCF-7 cell lines. The MCF-7 is a breast cancer cell line and was chosen because of the ability to express E2 binding sites.
^3H 17-β-estradiol (E2) was used at a final concentration in the wells of 1 nM in media. Samples were incubated for 3 hours after which the wells were aspirated and washed 3 times with warm PBS. Cell bound radioactivity was extracted with 300 μL EtOH which was added to each well and left to lyse for 20 min at room temperature. An aliquot was removed for counting, transferred to a counting plate and scintillant added and the plate counted in a Perkin Elmer MicroBeta.

[2] = system: Prostaglandin E2 (PGE2) production in a mouse 3T3 fibroblast cell line; experiment: Anti-inflammatory assay: secreted PGE2 from stimulated 3T3 fibroblasts; format: cell-based; conditions: 3T3 cells, 500 μM, dilution 500
Text: This assay was run to determine the effectiveness of the herbal formula to inhibit Prostaglandin E2 (PGE2) production in a mouse 3T3 fibroblast cell line.
The anti-inflammatory assay measures the level of PGE2 in stimulated mouse fibroblast 3T3 cell line after treatment with the herbal formula. The use of a stimulated cell line rather than using isolated enzyme systems gives more useful data.
PGE2 is formed in a variety of cells from PGH2, which itself is synthesized from arachiodonic acid by the enzyme prostaglandin synthetase. The assay measures secreted levels of PGE2 from the supernatant of the fibroblast cells.

LNCap cell lines = experiment: LNCap cell cycle assay; format: cell-based; conditions: positive control (FIG. 7)
Experimental: A anti-cancer activity assay was conducted with the results presented in Table 3 wherein the herb formula represents a combination according to the present invention. LNCap is an androgen-dependent prostate cancer cell line.

HL60 cell lines = experiment: HL60 cell cycle assay; format: cell-based, human; conditions: HL60, positive control (FIG. 10)
Experimental: The bioactivity of the herb formula was assessed using HL60 cell lines. HL60 is a human promyelocytic leukemia cell line.

PC-3 cell lines = experiment: PC3 cell cycle analysis by flow cytometry of propidium iodide stained cells; format: cell-based; conditions: PC-3, paclitaxol 10 ng/mL (FIG. 3)
Experimental: Cell cycle analysis was carried out using tablets/capsules of the present invention. The formulation was tested as a single tablet/capsule concentration in triplicate and as a two capsule concentration also in triplicate.
Tablets/capsules were weighed, crushed and extracted with 10 ml of methanol. The extracts were sonicated for 40 mins and then spun down at 4000 rpm. The supernatant was removed and 100 μL of this extract was used in the cell cycle analysis. A further aliquot of this extract was subjected to HPLC-MS analysis as described in Example 3 below. Cells were split into 16×25 cm^2 flasks at a low concentration and allowed to grow to 65-70% confluence (at the time of addition the cells were in log phase). Flasks were incubated for 24 hours and control flasks of control media (no additions), an ethanol (100 μL EtOH), a control methanol (100 μL MeOH) and paclitaxol (10 μL of 0.01 mg/mL=10 ng/mL) were also run.
Flow cytometry was performed on the fixed cells after washing in PBS and stained using propidium iodide (2% PI in 0.1% Triton X-100 containing 2 mg/mL Rnase A). A Becton Dickson FACSCaliber was used to assay the cells.

CC(O)(CS(=O)(=O)c1ccc(F)cc1)C(=O)Nc1ccc(C#N)c(C(F)(F)F)c1 (centres unmarked) [Casodex]
serum PSA (serum PSA): 5.7

O=c1c(-c2ccc(O)cc2)coc2cc(O)ccc12 [diadzein]
displacement of 3H E2 from the E2 receptor [1]: > 60%

CC(=O)Oc1ccccc1C(=O)O [Aspirin]
% Control (secreted PGE2) [2]: 14.2%

CC(=O)O[C@H]1C(=O)[C@@]2(C)[C@H]([C@H](OC(=O)c3ccccc3)[C@]3(O)C[C@H](OC(=O)[C@H](O)[C@@H](NC(=O)c4ccccc4)c4ccccc4)C(C)=C1C3(C)C)[C@]1(OC(C)=O)CO[C@@H]1C[C@@H]2O [Paclitaxol]
effect on the cell cycle (LNCap cell lines): arresting of cells in G2-M | effect on the cell cycle (HL60 cell lines): arrest the cells in the G2-M stage | cells in the G0-G1 phase (PC-3 cell lines): 1.16% | cells in the G2-M phase (PC-3 cell lines): 71.89% | cells in the S phase (PC-3 cell lines): 26.95%
